# Results reported in patent US20250092419A1, “SYNTHETIC TARGETERS OF UBIQUITINATION AND DEGRADATION (STUDS) AS EFFECTORS FOR FEEDBACK CONTROL IN MAMMALIAN CELLS” (The Regents of the University of California, priority 2022, published 2025).
# Where a SMILES comes first, the peptide text is derived from it. The star is where a group is joined. Cbz = O=C(OCc1ccccc1)*
# Tests used:
# [1] = system: proteasomal and lysosomal degradation pathways; assay: Inhibitor assays: rescue of GFP fluorescence in Jurkat T cells expressing STUD and GFP target; assay type: cell-based; settings: 5 μM MG-132, 1 μM MLN4924 or 100 nM Bafilomycin A1; 37 C for 5 hours; cells expressing functional STUD and GFP target
# Experimental: 72 hours after removal of lentivirus, the Jurkat T cells and an untransduced control cell line were treated with either 5 μM of the proteasomal inhibitor MG-132, 1 μM of the cullin ring ligase inhibitor MLN4924, 100 nM of the lysosomal inhibitor Bafilomycin A1, or DMSO vehicle control and incubate at 37 C for 5 hours. Using flow cytometry to measure GFP fluorescence following treatment, it was observed that GFP fluorescence can indeed be rescued with MG-132 and MLN4924 when cells express both a functional STUD and a GFP target relative to DMSO vehicle control.
# Inhibitor Assays: 100,000 cells were plated in a 96 well round bottom plate with either 5 μM MG-132 (Sigma-Aldrich #M7449-200UL), 1 μM MLN4924 (Active Biochem #A-1139), 100 nM Bafilomycin A1 (Enzo Life Sciences #BML-CM110-0100), or DMSO vehicle control and incubated at 37 C for 5 hours. After incubation, cells were pelleted by centrifugation at 400×g for 4 minutes. Supernatant was then removed and cells were washed once with 200 μL PBS. Cells were pelleted again (400×g for 4 minutes) and resuspended in flow buffer (PBS+2% FBS) for assay by flow cytometry.
# proteasome = assay: MG132 proteasome inhibitor treatment of primary human CD4+ T cells expressing GFP nanobody STUD; assay type: cell-based; settings: 5 uM MG132, three hours; cells expressing functional nanobody STUD (nanobody(K->R)+Bonger) only
# Experimental: The mechanism of how the STUD reduces GFP was explored. Primary human CD4+ T cells expressing the GFP nanobody STUD were fed with the MG132 proteasome inhibitor and the change in fluorescence was measured over time. Cells expressing a functional STUD should display an increase in fluorescence over time as the proteasome inhibitor took effect.
# Using proteasome inhibitor to explore cytosolic GFP mechanism: To ascertain the mechanism by which the STUD degrades cytosolic GFP, the cells were inoculated with 5 uM of the proteasome inhibitor MG132 for 1 and 3 hours. Cells were then washed with PBS and analyzed by flow cytometry. Using the same 2-plasmid system as described above, changes in GFP fluorescence relative to controls were measured.
# NALM6 target cells = assay: MLN dose response: ON switch CAR, lysis of NALM6 target cells by CD8+ primary human T cells; assay type: cell-based; settings: MLN4924 1 μM to 0.015625 μM; 72 hours at 37 C; antiCD19BBz CAR fused to SynZip plus memSTUD
# Experimental: CD8+ primary human T cells were engineered with an antiCD19BBz CAR fused to a SynZip and a memSTUD that binds the SynZip using the same plasmids outlined in FIG. 14A by lentiviral transduction. As a control, CD8+ primary human T cells were lentivirally transduced with an antiCD19BBz and a SynZip memSTUD which cannot bind the CAR. These engineered cells and an untransduced control were cocultured with NALM6 target cells for 72 hours at 37 C in the presence of MLN4924 ranging from 1 μM to 0.015625 μM and a DMSO vehicle control. After coculture, target cell lysis was assayed by flow cytometry. Specific target cell lysis of each cell line relative to NALM6 cells cultured alone in the same conditions was then calculated.
# Co-culture assays: For all assays, T cells and target cells were co-cultured at a 1:1 ratio with cell numbers varying per assay. All assays contained between 10,000 and 50,000 of each cell type. The Countess II Cell Counter (ThermoFisher) was used to determine cell counts for all assays set up. T cells and target cells were mixed in 96-well round bottom tissue culture plates in 200 μL T cell media, and then plates were centrifuged for 1 min at 400×g to initiate interaction of the cells prior to incubation at 37 C.
# MLN dose response: 25,000 CD8+ primary human T cells were seeded into 96 well round bottom plates in 100 μL fresh media. […]
# cullin ring ligase = assay: MLN4924 rescue of STUD knockdown of CD19BBz CAR expression in CD8+ primary T cells; assay type: cell-based, human; settings: 1 μM MLN4924 for 5 hours at 37 C; CD19BBz CAR with STUD
# CAR-SZ17 fusion = assay: Degradation of CAR-SZ17 fusion in Jurkat cells; assay type: cell-based; settings: degron directly fused to the CAR
# Experimental: The ability of the STUD to degrade a CAR in Jurkat cells was tested by generating a CAR construct with SynZIP17 fused to its C-terminus. However, while these STUDs worked to some extent, none of them were able to completely knockdown CAR expression (see FIG. 8).
# GFP-SZ17 [GFP: P42212] = assay: cell-based or functional assay
compound,measurement,setting,value
CO/C1=C\C(C)=C\[C@@H](C)[C@@H](O)[C@@H](C)C/C(C)=C/C=C/[C@H](OC)[C@@H]([C@@H](C)[C@@H](O)[C@H](C)[C@@]2(O)C[C@@H](O)[C@H](C)[C@@H](C(C)C)O2)OC1=O [Bafilomycin A1],GFP fluorescence relative to DMSO vehicle control,[1],No changes to GFP fluorescence
CC(C)C[C@@H](C=O)NC(=O)[C@H](CC(C)C)NC(=O)[C@H](CC(C)C)NC(=O)OCc1ccccc1 [MG-132] (Cbz-Leu-Leu-Leu-aldehyde),change in GFP fluorescence over time,proteasome,increase in GFP fluorescence
same,GFP fluorescence relative to DMSO vehicle control,[1],rescued
NS(=O)(=O)OC[C@@H]1C[C@@H](n2ccc3c(N[C@H]4CCc5ccccc54)ncnc32)C[C@@H]1O [MLN4924],specific target cell lysis,NALM6 target cells,dose dependent
same,CAR expression (CAR fluorescence by antibody stain),cullin ring ligase,rescue STUD knockdown of CAR expression
same,GFP fluorescence relative to DMSO vehicle control,[1],rescued
Arg-Arg-Arg-Gly (RRRG) [Bonger degron],reduction of CAR expression,CAR-SZ17 fusion,over 90%
SynZIP18(K->R)-5xGS-RRRG (designed binder),"median normalized GFP fluorescence (flow cytometry, Jurkat T cells), fold change",GFP-SZ17 [GFP: P42212],42 fold
